Experimental data as given in US12157745B2, “Heterocyclic systems and pharmaceutical compositions thereof” (University of Sharjah, priority 2018, dated 2024).

Experiments:
MCF7 = test: Full dose-response, survival of cancer cell line (SRB assay); format: cell-based; settings: Homo sapiens, breast cancer, 48 hours of drug treatment, average of three individual experiments
Text: (§1) Dulbecco's Modified Eagles Medium (DMEM), RPMI 1640 medium and propidium iodide (PI) were purchased from Sigma Aldrich (Darmstadt, Germany). For western blot, the antibodies; c-Myc, p^53, p^21, Bax, Bid, BclxL, GAPDH, caspase-3, caspase-9, p-ATM, p-ATR, p-Chk1, p-Chk2, p-P^53, and p-H2AX along with respective mouse/rabbit secondary antibodies were purchased from Cell Signaling Technology (Danvers, MA, USA). FITC Annexin V Apoptosis kit was purchased from BD Biosciences (New Jersey, USA). All other chemicals and solvents used were of standard analytical grade. The stock solutions of SIMR compounds were made in 100% DMSO and working solutions for treatments never exceeded >1% DMSO. The cell lines were gifted from Radiobiology and Experimental Radio Oncology lab, University Cancer Center, Hamburg University, Hamburg, Germany. F180 and HCT116 cells were cultured in DMEM media while MCF-7 and SKBR3 cells were cultured in RPMI along with 10% FBS and 5% CO2 in a humidified incubator at 37° C. The cells were grown on polystyrene T-75 (75 cm^2) culture flasks and all the experiments were performed at ˜70% cell confluency.
(§2) SRB assay was performed on DU-143 and MCF-7 cells in order to find out the sub-lethal dosage (IC50) of the synthesized compounds based on reported method with minor modifications. Briefly, 1×10^4 cells were seeded in a 96-well plate overnight and were treated with different concentrations of compounds and incubated further for 48 hours. The wells which were devoid of any treatment served as controls. After the treatment time, the plates were incubated with 50% trichloroacetic acid (TCA) at 4° C. for 1 hour. The cells were then washed, dried and exposed to 1% acetic acid for short period. Two hundred microliters of 10 mMtris base solution was then added with 10 min incubation after drying the plates and the OD was read at 492 nm by using a Multiskan™ GO (Thermo Scientific, USA) microplate Spectrophotometer.

HCT116 = test: as above; format: cell-based; settings: Homo sapiens, HCT-116; colon cancer; 48 hours of drug treatment; average of three individual experiments
Text: as §1, §2

SKBR3 = test: as above; format: cell-based; settings: Homo sapiens, SK-BR-3; breast cancer; 48 hours of drug treatment; average of three individual experiments
Text: as §1, §2

p21 = test: Western blot, p21 expression; format: cell-based; settings: HCT116 colon cancer cells
Description: The MCF-7, SKBR3 and HCT116 total cell lysate were prepared after 24 hours of treatment with compound it at IC50 and DIC50 doses by using 1× laemmli buffer. Total protein concentration was then estimated for each sample and 15-30 μg of protein lysate were loaded equally on 12% SDS-PAGE gel in order to detect various proteins expression levels. In short, the membrane was incubated with different primary antibodies (as mentioned in above section) (1:1000) overnight after blocking with 5% non-fat milk solution for 1 hour. The membrane was then re-probed with respective mouse/rabbit secondary antibodies (1:2000) for 1 h, and later developed by enhanced chemiluminescence (ECL) method by using a Chemidoc MP (BioRad, Germany).

[1] = target: T1, inositol-3-phosphate synthase (Homo sapiens, UniProt Q9NPH2); test: DARTS proteomic assay; format: binding
T1 construct: HEK293T cells were lysed using M-PER; endogenous in cells; host or cells: HEK293T lysate
T1 sequence (Q9NPH2 whole entry): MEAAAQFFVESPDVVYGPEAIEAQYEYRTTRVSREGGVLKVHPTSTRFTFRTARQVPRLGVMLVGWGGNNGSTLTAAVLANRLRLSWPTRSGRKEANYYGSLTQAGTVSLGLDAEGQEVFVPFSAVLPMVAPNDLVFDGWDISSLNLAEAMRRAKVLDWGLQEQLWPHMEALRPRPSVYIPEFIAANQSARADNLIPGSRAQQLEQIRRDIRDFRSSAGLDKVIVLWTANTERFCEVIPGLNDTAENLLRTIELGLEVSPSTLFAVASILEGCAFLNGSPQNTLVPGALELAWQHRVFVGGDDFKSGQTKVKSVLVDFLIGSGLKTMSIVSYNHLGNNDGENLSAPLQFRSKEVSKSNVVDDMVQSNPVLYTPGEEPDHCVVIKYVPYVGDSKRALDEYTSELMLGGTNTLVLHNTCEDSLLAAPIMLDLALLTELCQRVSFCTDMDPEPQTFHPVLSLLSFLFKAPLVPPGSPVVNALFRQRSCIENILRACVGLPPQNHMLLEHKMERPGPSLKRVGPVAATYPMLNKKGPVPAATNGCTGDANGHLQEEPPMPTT
Text: (§3) The unique properties of compound it prompted an in-depth analysis to explore its potential novel targets.
(§4) Similarly, deregulated inositol metabolism has been observed in a number of diseases, including cancer, where inositol modulates different critical pathways in disease progression. Moreover, it is expressed consistently in bipolar disorders and Alzheimer's diseases. […] Likewise, the role of glutathione reductase is well known in cancer progression and chemoresistance. The equilibrium between the glutathione disulphide ratio is critical not only in cancer progression but also in increased oxidative stress which can lead to other disorders.
(§5) A DARTS assay was used to assess the binding of compound 1t. HEK293T cells were lysed using M-PER (Thermo Scientific, Inc.) supplemented with protease and phosphatase inhibitors (Lysis buffer). 4.7 mg/mL of protein and TNC buffer (10 mM Tris, 140 mMNaCl, 5 mM CaCl2)) was added, compound it was diluted in DMSO to 3 different concentrations (0.01 μM, 0.1 μM, 1 μM) and incubated for one hour at room temperature. Trypsin (Promega) was added and incubated for 3 hours at 37° C. Thereafter, M-PER lysis buffer was added and the samples were concentrated with Microcon 10K centrifugal filters. The proteins were identified by gel electrophoresis liquid chromatography mass spectroscopy (GelLCMS).

[2] = target: T2, transferrin receptor proteins (Homo sapiens, UniProt P02786); test: DARTS proteomic assay; format: binding
T2 construct: HEK293T cells were lysed using M-PER; endogenous in cells; host or cells: HEK293T lysate
T2 sequence (P02786 whole entry): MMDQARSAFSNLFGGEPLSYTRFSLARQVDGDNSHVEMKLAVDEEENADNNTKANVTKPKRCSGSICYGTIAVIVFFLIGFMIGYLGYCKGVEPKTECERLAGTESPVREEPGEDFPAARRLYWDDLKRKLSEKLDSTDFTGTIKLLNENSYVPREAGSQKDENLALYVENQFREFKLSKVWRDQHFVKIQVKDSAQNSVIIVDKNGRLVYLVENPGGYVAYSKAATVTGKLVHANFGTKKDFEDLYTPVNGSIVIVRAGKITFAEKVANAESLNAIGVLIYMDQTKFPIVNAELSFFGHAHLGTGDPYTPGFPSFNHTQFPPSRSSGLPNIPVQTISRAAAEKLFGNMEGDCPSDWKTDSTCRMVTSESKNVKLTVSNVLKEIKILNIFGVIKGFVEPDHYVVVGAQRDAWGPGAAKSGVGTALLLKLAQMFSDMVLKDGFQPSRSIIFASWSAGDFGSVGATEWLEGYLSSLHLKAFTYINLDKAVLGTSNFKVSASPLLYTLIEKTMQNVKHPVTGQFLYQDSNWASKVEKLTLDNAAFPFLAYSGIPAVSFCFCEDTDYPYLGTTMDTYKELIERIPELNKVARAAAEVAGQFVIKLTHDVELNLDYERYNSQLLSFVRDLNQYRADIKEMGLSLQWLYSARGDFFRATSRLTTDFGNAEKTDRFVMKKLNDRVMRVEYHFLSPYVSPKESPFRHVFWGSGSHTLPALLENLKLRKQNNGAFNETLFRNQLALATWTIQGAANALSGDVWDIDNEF
Text: as §3, §4, §5

[3] = target: T3, dihydrolipoamide dehydrogenase (Homo sapiens, UniProt P09622); test: DARTS proteomic assay; format: binding; settings: FIG. 15
T3 construct: HEK293T cells were lysed using M-PER; endogenous in cells; host or cells: HEK293T lysate
T3 sequence (P09622 36-509): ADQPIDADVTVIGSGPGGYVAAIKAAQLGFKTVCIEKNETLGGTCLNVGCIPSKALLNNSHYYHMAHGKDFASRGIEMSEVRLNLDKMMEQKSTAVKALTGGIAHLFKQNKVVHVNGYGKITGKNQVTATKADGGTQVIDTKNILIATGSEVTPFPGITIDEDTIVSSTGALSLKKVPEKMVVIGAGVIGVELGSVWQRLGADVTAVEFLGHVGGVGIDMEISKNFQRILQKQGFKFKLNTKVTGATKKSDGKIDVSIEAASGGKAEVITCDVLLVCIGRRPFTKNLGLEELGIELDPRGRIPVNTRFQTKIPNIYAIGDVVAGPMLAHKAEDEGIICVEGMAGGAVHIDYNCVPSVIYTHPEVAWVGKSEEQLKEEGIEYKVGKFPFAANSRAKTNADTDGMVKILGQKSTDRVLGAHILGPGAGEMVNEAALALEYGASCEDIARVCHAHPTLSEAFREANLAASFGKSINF
Text: as §3
Dihydrolipoamide dehydrogenase (DLD) is a mitochondrial enzyme involved in metabolic process that is encoded by the DLD gene. Not many studies have been done to identify the direct involvement of this enzyme in cancers. However, a deregulated level of DLD may modulate mitochondrial-mediated diseases and may impair normal metabolic processes. […] The presently disclosed data is encouraging and indicates compound it may potentially be used to target multiple key enzymes that are involved in tumor development and progression.
as §5

CC1(C)[C@H]2COc3ccc4ccccc4c3[C@H]2N=C2SC(c3ccccc3)=C(c3ccccc3)N21 [Compound 1t]
IC50 (MCF7): 1910 nM | IC50 (HCT116): 1500 nM | IC50 (SKBR3): 1900 nM | Expression of p21 (p21): overexpressed | Affinity to bind inositol-3-phosphate synthase [1]: dose-dependent affinity | Affinity to transferrin receptors [2]: higher affinity | Regulation of dihydrolipoamide dehydrogenase [3]: regulates this enzyme
